Test results from ChEMBL document CHEMBL4680256, “Indole chalcones: Design, synthesis, in vitro and in silico evaluation against Mycobacterium tuberculosis” (Eur J Med Chem, 2020).
≈ marks a conversion by molar mass, not a printed value.

Experiments:
[1] = tested on: Mycobacterium tuberculosis; experiment: Antimycobacterial activity against Mycobacterium tuberculosis H37Rv assessed as inhibition of bacterial growth at 50 ug/ml preincubated for 72 hrs followed by phAE202 and Cacl2 addition and measured after 4 hrs by luciferase reporter mycobacterio-phage assay; assay type: functional; conditions: time 76 hrs
[2] = tested on: Mycobacterium tuberculosis; experiment: Antimycobacterial activity against Mycobacterium tuberculosis H37Rv assessed as reduction in bacterial growth preincubated for 72 hrs followed by phAE202 and Cacl2 addition and measured after 4 hrs by luciferase reporter mycobacterio-phage assay; assay type: functional; conditions: time 76 hrs
[3] = tested on: Mycobacterium tuberculosis; experiment: Antimycobacterial activity against Mycobacterium tuberculosis H37Rv assessed as inhibition of bacterial growth at 100 ug/ml preincubated for 72 hrs followed by phAE202 and Cacl2 addition and measured after 4 hrs by luciferase reporter mycobacterio-phage assay; assay type: functional; conditions: time 76 hrs
[4] = Cytotoxicity against mouse BA/F3 cells assessed as cell viability at 10 to 50 ug/ml incubated for 24 hrs by WST-1 assay relative to control; assay type: cell-based, BaF3; conditions: at 10 to 50 µg/mL, dose 10-50 µg/ml, read-out: Activity
[5] = Cytotoxicity against human Mo7e cells assessed as cell viability at 10 to 50 ug/ml incubated for 24 hrs by WST-1 assay relative to control; assay type: cell-based, M07E; conditions: at 10 to 50 µg/mL, dose 10-50 µg/ml, read-out: Activity

Row | Compound | inhibition at 50 µg/mL [1] | MIC [2] | inhibition at 100 µg/mL [3] | viability at 24 h [4] | viability at 24 h [5]
1 | O=C(/C=C/c1c[nH]c2ccccc12)N1CCN(c2ccc(O)cc2)CC1 | 63.8% | 143 µM (≈ 49.7 µg/mL) | 76.4% | – | –
2 | Nc1cccc(C(=O)/C=C/c2c[nH]c3ccccc23)c1 | 37.2% | > 381 µM | 48.7% | – | –
3 | O=C(/C=C/c1c[nH]c2ccccc12)c1ccccn1 | 53.1% | 201 µM (≈ 49.9 µg/mL) | 62% | – | –
4 | O=C(/C=C/c1c[nH]c2ccccc12)c1ccc(Br)cc1 | 64.9% | 155 µM (≈ 50.6 µg/mL) | 65.9% | – | –
5 | O=C(/C=C/c1c[nH]c2ccccc12)c1ccc(-c2ccsc2)cc1 | 62% | 197 µM (≈ 64.9 µg/mL) | 63.4% | – | –
6 | O=C(/C=C/c1c[nH]c2ccccc12)c1ccc(Cl)cc1 | 48.6% | > 355 µM | 50.6% | – | –
7 | O=C(/C=C/c1c[nH]c2ccccc12)c1ccc(C(F)(F)F)cc1 | 29.7% | > 317 µM | 31.2% | – | –
8 | CO[C@H]1/C=C/O[C@@]2(C)Oc3c(C)c(O)c4c(O)c(c(/C=N/N5CCN(C)CC5)c(O)c4c3C2=O)NC(=O)/C(C)=C\C=C\[C@H](C)[C@H](O)[C@@H](C)[C@@H](O)[C@@H](C)[C@H](OC(C)=O)[C@@H]1C [RIFAMPIN] | – | 2.4 µM (≈ 1.98 µg/mL) | > 99% | – | –
9 | NNC(=O)c1ccncc1 [ISONIAZID] | – | 1.4 µM (≈ 0.192 µg/mL) | > 99% | – | –
10 | O=C(/C=C/c1c[nH]c2ccccc12)c1ccc(-c2ccoc2)cc1 | 85.3% | 210 µM (≈ 65.8 µg/mL) | 87.7% | > 60% | > 80%
11 | COc1cccc(C(=O)/C=C/c2c[nH]c3ccccc23)c1 | 27.1% | > 360 µM | 36.7% | – | –
12 | O=C1CCC/C1=C\c1cc2ccccc2[nH]1 | 84.3% | 236 µM (≈ 49.9 µg/mL) | 86.3% | > 60% | > 80%
13 | Cc1ccc(C(=O)/C=C/c2c[nH]c3ccccc23)cc1 | 41.7% | > 382 µM | 50.9% | – | –
14 | O=C(/C=C/c1c[nH]c2ccccc12)c1ccc(-c2ccc[nH]2)cc1 | 26.4% | > 423 µM | 49.4% | – | –
15 | O=C(/C=C/c1c[nH]c2ccccc12)c1ccc(O)cc1 | 54.9% | 189 µM (≈ 49.8 µg/mL) | 55.1% | – | –
16 | O=C(/C=C/c1c[nH]c2ccccc12)c1ccc(-n2ccnc2)cc1 | 63.6% | 159 µM (≈ 49.8 µg/mL) | 70.7% | – | –
17 | O=C1CCCC/C1=C\c1cc2ccccc2[nH]1 | 53.1% | 221 µM (≈ 49.8 µg/mL) | 62% | – | –
18 | COc1ccc(C(=O)/C=C/c2c[nH]c3ccccc23)cc1OC | 27.1% | > 325 µM | 31.7% | – | –
19 | O=C(/C=C/c1c[nH]c2ccccc12)c1ccc(Cl)cc1Cl | 52.3% | 164 µM (≈ 51.9 µg/mL) | 55.2% | – | –
20 | O=C(/C=C/c1c[nH]c2ccccc12)c1ccncc1 | 58.4% | 201 µM (≈ 49.9 µg/mL) | 64.2% | – | –
21 | O=C(/C=C/c1c[nH]c2ccccc12)c1cccc(C(F)(F)F)c1 | 24.5% | > 317 µM | 26.3% | – | –
22 | O=C(/C=C/c1c[nH]c2ccccc12)c1ccc(F)cc1 | 50.3% | 188 µM (≈ 49.9 µg/mL) | 54.2% | – | –
23 | O=C(/C=C/c1c[nH]c2ccccc12)c1cccnc1 | 63.1% | 201 µM (≈ 49.9 µg/mL) | 70.7% | – | –
24 | O=C(/C=C/c1c[nH]c2ccccc12)c1cccc([N+](=O)[O-])c1 | 48.7% | > 342 µM | 51.7% | – | –
25 | O=C(/C=C/c1c[nH]c2ccccc12)c1ccc(-c2cccs2)cc1 | 82% | 197 µM (≈ 64.9 µg/mL) | 87.2% | > 60% | > 80%
26 | O=C(/C=C/c1c[nH]c2ccccc12)c1ccc2ccccc2c1 | 30.8% | > 336 µM | 41.8% | – | –
27 | O=C(/C=C/c1c[nH]c2ccccc12)c1ccc2c(c1)OCO2 | 66.8% | 171 µM (≈ 49.8 µg/mL) | 75.7% | – | –
